Measured values: patent US10738062B2, “Chromane-substituted tetracyclic compounds and uses thereof for the treatment of viral diseases” (Merck Sharp & Dohme Corp., priority 2016, dated 2020)
Like-named read-outs stand apart in the source and are kept apart here.

Key:
Set-up in all cases: species or system Hepatitis C virus
[1] = tested on: HCV replicon 1A; assay: Cell-based HCV replicon assay (Replicon Assay A), replicon 1A; conditions: replicon RNA by real time PCR, day 3
Method: (§1) To measure cell-based anti-HCV activity of compounds of the present invention, two complimentary assays were employed using various replicons. In the first assay (“Replicon Assay A”), replicon cells were seeded at 2000 cells/well in 384-well 384-well flat bottom tissue culture treated clear bottom plate (Corning 3707) in the presence of the test compound. Various concentrations of test compound, typically in 10 serial dilutions, were added to the assay mixture, with the starting concentration ranging from 333.3 nM to 1.667 nM. The final concentration of DMSO was 0.5%. Fetal bovine serum was 5%, in the assay media. Cells were harvested on day 3 by removing media and washing the cells with a suitable wash buffer. The cells were lysed with the addition of 1× Qiagen lysis buffer (Cat #1062731). The replicon RNA level was measured using real time PCR (TaqMan® EZ RT-PCR, Applied Biosystems 403028) with the following primers and probes: […]
(§2) Cyclophilin RNA was used as endogenous control and was amplified in the same reaction as NS5B (multiplex PCR). The real-time RT-PCR reactions were run on ABI PRISM 7900HT Sequence Detection System using the following program: 50° C. for 2 minutes, 60° C. for 30 minutes, 95° C. for 5 minutes, 40 cycles of 94° C. for 20 sec, 55° C. for 1 minutes.
(§3) The amount of HCV replicon RNA per cell was quantified using a linear regression curve for a known nanogram (ng) amount of HCV replicon total RNA. This was established by plotting the Cycle Threshold values (Ct) from the Neo probe and primer set versus the log (ng) for each HCV replicon total RNA standard. The amount of HCV RNA for each replicon sample was calculated by taking the sample's Ct value, minus the line intercept, divided by the slope of the line. Similarly, the amount of Cyclophilin mRNA per cell was also quantified using a linear regression curve for a known nanogram (ng) amount of HCV replicon total RNA. Again, this was established by plotting the Cycle Threshold values (Ct) from the Cyclophilin probe and primer set versus the log (ng) for each HCV replicon total RNA standard.
(§4) The real-time RT-PCR reactions were run on ABI PRISM 7900HT or Viia7 Sequence Detection System using the following program: 48° C. for 30 minutes, 95° C. for 10 minutes, 40 cycles of 95° C. for 15 sec, 60° C. for 1 minutes. The 50% effective concentration (EC50) was the drug concentration necessary to achieve an increase in the cycle threshold (CT) of 1 over the projected baseline CT.
(§5) Data was obtained for various compounds of the present invention using the methods described in the Example above, and is presented in the table immediately below. EC50 data for replicons 1A, 1AY93H and 2B were obtained using Replicon Assay A and EC50 data for replicon 1B was obtained using Replicon Assay B.

[2] = tested on: HCV replicon 2B; assay: Cell-based HCV replicon assay (Replicon Assay A), replicon 2B; conditions: replicon RNA by real time PCR, day 3
Method: as §1, §2, §3, §4, §5

[3] = tested on: HCV replicon 1A Y93H; assay: Cell-based HCV replicon assay (Replicon Assay A), replicon 1AY93H; conditions: read-out: EC50 replicon 1A Y93H; Replicon Assay A; replicon RNA by real time PCR, day 3
Method: as §1, §2, §3, §4, §5

[4] = read-out: EC50 replicon 2B, Replicon Assay A

In the case of `COC(=O)N[C@H](C(=O)N1CCC[C@H]1c1ncc(-c2cc(F)c3c(c2)OC(c2ccc4c(c2)OCCC4C)n2c-3cc3cc(-c4cnc([C@@H]5CCCN5C(=O)[C@@H](NC(=O)OC)C(C)C)[nH]4)ccc32)[nH]1)C(C)C` (single isomer, unassigned) [Compound 7], the EC50 ([1]; Hepatitis C virus, 72 h) is reported as 0.0017 nM, the EC50 [2, 4] is reported as 1.59 nM and the EC50 [3] is reported as 2.18 nM.

`COC(=O)N[C@H](C(=O)N1CCC[C@H]1c1ncc(-c2cc(F)c3c(c2)OC(c2ccc4c(c2)OCCC4C)n2c-3cc3cc(-c4cnc([C@@H]5CCCN5C(=O)[C@@H](NC(=O)OC)C(C)C)[nH]4)ccc32)[nH]1)C(C)C` (single isomer, unassigned) [Compound 9] showed an EC50 [1] of 0.0026 nM, an EC50 [2, 4] of 0.772 nM and an EC50 [3] of 0.949 nM.

`COC(=O)N[C@H](C(=O)N1CCC[C@H]1c1ncc(-c2cc(F)c3c(c2)OC(c2ccc4c(c2)OC(C)CC4)n2c-3cc3cc(-c4cnc([C@@H]5CCCN5C(=O)[C@@H](NC(=O)OC)C(C)C)[nH]4)ccc32)[nH]1)C(C)C` (single isomer, unassigned) [Compound 11] was tested, and the EC50 ([1]; Hepatitis C virus, 72 h) was 0.0025 nM, the EC50 [2, 4] was 1.39 nM and the EC50 [3] was 5.7 nM.

For `COC(=O)N[C@H](C(=O)N1CCC[C@H]1c1ncc(-c2cc(F)c3c(c2)OC(c2ccc4c(c2)OC(C)CC4)n2c-3cc3cc(-c4cnc([C@@H]5CCCN5C(=O)[C@@H](NC(=O)OC)C(C)C)[nH]4)ccc32)[nH]1)C(C)C` (single isomer, unassigned) [Compound 12], the EC50 [1] was 0.0016 nM, the EC50 [2, 4] was 1.9 nM and the EC50 [3] was 6.73 nM.

`COC(=O)N[C@H](C(=O)N1CCC[C@H]1c1ncc(-c2cc(F)c3c(c2)OC(c2ccc4c(c2)OCCC42CC2)n2c-3cc3cc(-c4cnc([C@@H]5CCCN5C(=O)[C@@H](NC(=O)OC)C(C)C)[nH]4)ccc32)[nH]1)C(C)C` (single isomer, unassigned) [Compound 15] was tested, and the EC50 ([1]; Hepatitis C virus, 72 h) was 0.0012 nM, the EC50 [2, 4] was 1.31 nM and the EC50 [3] was 2.15 nM.

Work on `COC(=O)N[C@H](C(=O)N1CCC[C@H]1c1ncc(-c2cc(F)c3c(c2)OC(c2ccc4c(c2)OCCC42CC2)n2c-3cc3cc(-c4cnc([C@@H]5CCCN5C(=O)[C@@H](NC(=O)OC)C(C)C)[nH]4)ccc32)[nH]1)C(C)C` (single isomer, unassigned) [Compound 16] yielded an EC50 [1] of 0.002 nM, an EC50 [2, 4] of 0.038 nM and an EC50 [3] of 0.031 nM.

`COC(=O)N[C@H](C(=O)N1CCC[C@H]1c1ncc(-c2cc(F)c3c(c2)OC(c2ccc4c(c2)OC(C)(C)CC4)n2c-3cc3cc(-c4cnc([C@@H]5CCCN5C(=O)[C@@H](NC(=O)OC)C(C)C)[nH]4)ccc32)[nH]1)C(C)C` (single isomer, unassigned) [Compound 17] gave an EC50 [2, 4] of 5.21 nM and an EC50 [3] of 11.8 nM.

Work on `COC(=O)N[C@H](C(=O)N1CCC[C@H]1c1ncc(-c2cc(F)c3c(c2)OC(c2ccc4c(c2)OC(C)(C)CC4)n2c-3cc3cc(-c4cnc([C@@H]5CCCN5C(=O)[C@@H](NC(=O)OC)C(C)C)[nH]4)ccc32)[nH]1)C(C)C` (single isomer, unassigned) [Compound 18] yielded an EC50 ([1]; Hepatitis C virus, 72 h) of 0.0022 nM, an EC50 [2, 4] of 0.252 nM and an EC50 [3] of 0.052 nM.

`COC(=O)N[C@H](C(=O)N1CCC[C@H]1c1ncc(-c2cc(F)c3c(c2)OC(c2ccc4c(c2)OCCC4(F)F)n2c-3cc3cc(-c4cnc([C@@H]5CCCN5C(=O)[C@@H](NC(=O)OC)C(C)C)[nH]4)ccc32)[nH]1)C(C)C` (single isomer, unassigned) [Compound 19] showed an EC50 ([1]; Hepatitis C virus, 72 h) of 0.0014 nM, an EC50 [2, 4] of 0.767 nM and an EC50 [3] of 4.2 nM.

With `COC(=O)N[C@H](C(=O)N1CCC[C@H]1c1ncc(-c2cc(F)c3c(c2)OC(c2ccc4c(c2)CCC(C)(C)O4)n2c-3cc3cc(-c4cnc([C@@H]5CCCN5C(=O)[C@@H](NC(=O)OC)C(C)C)[nH]4)ccc32)[nH]1)C(C)C` (single isomer, unassigned) [Compound 21] the EC50 ([1]; Hepatitis C virus, 72 h) was 0.0015 nM, the EC50 [2, 4] was 3.56 nM and the EC50 [3] was 7.11 nM.

Compound `COC(=O)N[C@H](C(=O)N1CCC[C@H]1c1ncc(-c2cc(F)c3c(c2)OC(c2ccc4c(c2)CCC(C)(C)O4)n2c-3cc3cc(-c4cnc([C@@H]5CCCN5C(=O)[C@@H](NC(=O)OC)C(C)C)[nH]4)ccc32)[nH]1)C(C)C` (single isomer, unassigned) [Compound 22] has an EC50 [1] of 0.0027 nM, an EC50 [2, 4] of 0.93 nM and an EC50 [3] of 0.162 nM.

With `COC(=O)N[C@H](C(=O)N1CCC[C@H]1c1ncc(-c2cc(F)c3c(c2)OC(c2ccc4c(c2)CCCO4)n2c-3cc3cc(-c4cnc([C@@H]5CCCN5C(=O)[C@@H](NC(=O)OC)C(C)C)[nH]4)ccc32)[nH]1)C(C)C` (single isomer, unassigned) [Compound 23] the EC50 ([1]; Hepatitis C virus, 72 h) was 0.002 nM, the EC50 [2, 4] was 5.17 nM and the EC50 [3] was 2.62 nM.

In the case of `COC(=O)N[C@H](C(=O)N1CCC[C@H]1c1ncc(-c2cc(F)c3c(c2)OC(c2ccc4c(c2)CCCO4)n2c-3cc3cc(-c4cnc([C@@H]5CCCN5C(=O)[C@@H](NC(=O)OC)C(C)C)[nH]4)ccc32)[nH]1)C(C)C` (single isomer, unassigned) [Compound 24], the EC50 [1] is reported as 0.0016 nM, the EC50 [2, 4] is reported as 1.77 nM and the EC50 [3] is reported as 0.282 nM.

For `COC(=O)N[C@H](C(=O)N1CCC[C@H]1c1ncc(-c2cc(F)c3c(c2)OC(c2ccc4c(c2)CC2CC2(C)O4)n2c-3cc3cc(-c4cnc([C@@H]5CCCN5C(=O)[C@@H](NC(=O)OC)C(C)C)[nH]4)ccc32)[nH]1)C(C)C` (single isomer, unassigned) [Compound 25], the EC50 ([1]; Hepatitis C virus, 72 h) was 0.0037 nM, the EC50 [2, 4] was 3.83 nM and the EC50 [3] was 4.67 nM.

For `COC(=O)N[C@H](C(=O)N1CCC[C@H]1c1ncc(-c2cc(F)c3c(c2)OC(c2ccc4c(c2)OCCC4)n2c-3cc3cc(-c4cnc([C@@H]5C[C@@H](F)CN5C(=O)[C@@H](c5ccccc5)N5CCC5)[nH]4)ccc32)[nH]1)C(C)C` (single isomer, unassigned) [Compound 37], the EC50 [1] was 0.187 nM and the EC50 [3] was 15.2 nM.

`COC(=O)N[C@H](C(=O)N1CCC[C@H]1c1ncc(-c2cc(F)c3c(c2)OC(c2ccc4c(c2)OCCC4)n2c-3cc3cc(-c4cnc([C@@H]5C[C@@H](F)CN5C(=O)[C@@H](c5ccccc5)N5CCC5)[nH]4)ccc32)[nH]1)C(C)C` (single isomer, unassigned) [Compound 38] gave an EC50 [1] of 0.0052 nM and an EC50 [3] of 6.65 nM.

Compound `COC(=O)NC(C(=O)N1CCC[C@H]1c1ncc(-c2ccc3c(c2)cc2n3C(c3ccc4c(c3)OCCC4)Oc3cc(-c4cnc([C@@H]5CCCN5C(=O)[C@@H](NC(=O)OC)C(C)C)[nH]4)cc(F)c3-2)[nH]1)C(C)(C)F` (single isomer, unassigned) [Compound 41] has an EC50 [2, 4] of 4.13 nM.

`COC(=O)NC(C(=O)N1CCC[C@H]1c1ncc(-c2ccc3c(c2)cc2n3C(c3ccc4c(c3)OCCC4)Oc3cc(-c4cnc([C@@H]5CCCN5C(=O)[C@@H](NC(=O)OC)C(C)C)[nH]4)cc(F)c3-2)[nH]1)C(C)(C)F` (single isomer, unassigned) [Compound 44] was tested, and the EC50 [2, 4] was 4.91 nM.

`COC(=O)N[C@H](C(=O)N1CCC[C@H]1c1ncc(-c2cc(F)c3c(c2)OC(c2ccc4c(c2)OCC4)n2c-3cc3cc(-c4cnc([C@@H]5C[C@H]6C[C@H]6N5C(=O)[C@@H](NC(=O)OC)C(C)C)[nH]4)ccc32)[nH]1)C(C)C` (single isomer, unassigned) [Compound 47] was tested, and the EC50 [2, 4] was 4.32 nM and the EC50 [3] was 4.52 nM.

With `CCN(CC)[C@@H](C(=O)N1[C@@H]2C[C@@H]2C[C@H]1c1ncc(-c2ccc3c(c2)cc2n3C(c3ccc4c(c3)OCCC4)Oc3cc(-c4cnc([C@@H]5CCCN5C(=O)[C@@H](NC(=O)OC)C5CCOCC5)[nH]4)cc(F)c3-2)[nH]1)c1ccccc1` (single isomer, unassigned) [Compound 53] the EC50 [2, 4] was 0.379 nM.

`COC(=O)N[C@H](C(=O)N1CCC[C@H]1c1ncc(-c2cc(F)c3c(c2)OC(c2ccc4c(c2)OCCC4)n2c-3cc3cc(-c4cnc([C@@H]5C[C@H]6C[C@H]6N5C(=O)[C@@H](c5ccccc5)N5CCC5)[nH]4)ccc32)[nH]1)C1CCOCC1` (single isomer, unassigned) [Compound 71] showed an EC50 ([2]; Hepatitis C virus, 72 h, read-out: EC50 replicon 2B, Replicon Assay A) of 5.13 nM.

Work on `COC(=O)N[C@H](C(=O)N1CCC[C@H]1c1ncc(-c2cc(F)c3c(c2)OC(c2ccc4c(c2)OCCC4)n2c-3cc3cc(-c4cnc([C@@H]5C[C@H]6C[C@H]6N5C(=O)[C@@H](c5ccccc5)N5CCC5)[nH]4)ccc32)[nH]1)C1CCOCC1` (single isomer, unassigned) [Compound 72] yielded an EC50 [2, 4] of 3.3 nM.
